Several values for one entry are separate records, joined by “and”; a condition that tells them apart may be missing. Identical values can stand only once.
Key:
R. SANGUINEUS = experiment: Comparative tick control on dogs, R. sanguineus, percent control; assay type: in vivo, Rhipicephalus sanguineus; set-up: Percent control R. sanguineus: concentration or dose not given beside the values
Source text: (§1) The purpose of this study was to was to determine comparative flea and tick control over a 30 day interval of a combination application of a pyrethroid and a chloronicotinyl insecticide applied dermally to dogs. This combination was compared with permethrin alone, imidacloprid alone, fipronil and selamectin. The latter two compounds are present in products that currently carry claims for both tick and flea control
(§2) Thirty-six dogs were divided into six groups of 6 dogs per group. Each dog received a single topically-applied treatment of the either “Kiltix”, a product available from Bayer Corporation containing 45% w/w permethrin, Advantage®, a product available from Bayer Corporation containing 9.1% w/w imidacloprid, a combination of Kiltix and Advantage containing 45% w/w permethrin+9.1% w/w imidacloprid, Top Spot), a product available from Merial containing 9.7% fipronil or Revolution®, a product available from Pfizer Inc. containing 12% w/v selamectin in accordance with the appropriate dose and label instructions for the various product applications. Control dogs remained untreated. All products were provided in the commercial unit dose applicator tubes.
(§3) The dogs were bathed with a mild non-medicated shampoo and thoroughly combed to remove any existing fleas or ticks 7 to 14 days prior to treatment. The dogs were infested with 100 unfed adult ticks (50 Dermacentor variabilis and 50 Rhipiciphalus sanguineus) and 100 unfed adult fleas on Day −3. Live fleas and ticks were counted on Day −1. The dogs were ranked according to total pretreatment live tick counts from highest to lowest. The 36 dogs with the highest counts were selected for the study. Each consecutive group of 6 dogs comprised one block. Treatment was randomly assigned within each block of dogs.
(§4) Each dog was examined visually for fleas and ticks on Days 1, 7, 14, 21, and 28 following treatment. The hair was parted with the thumbs and fingers to count fleas and ticks. Live tick counts were recorded by species. Live ticks only were counted visually on Days 2, 8, 15, 22, and 29. The dogs were combed on Days 3, 9, 16, 23, and 30. All remaining live fleas and ticks were counted and removed.

FLEAS (Siphoneptera) = experiment: Comparative flea control on dogs, percent control; assay type: in vivo; set-up: Percent control fleas: concentration or dose not given beside the values
Source text: as §1, §2, §3, §4

D. VARIABILIS = experiment: Comparative tick control on dogs, D. variabilis, percent control; assay type: in vivo, Dermacentor variabilis; set-up: concentration or dose not given beside the values
Source text: as §1, §2, §3, §4

[1] = test system: both species of ticks (D. variabilis and R. sanguineus); experiment: Tick control on dogs, both species together; assay type: in vivo, Dermacentor variabilis and Rhipicephalus sanguineus
Source text: as §1
Thirty-six dogs were divided into six groups of 6 dogs per group. […]
The dogs were bathed with a mild non-medicated shampoo and thoroughly combed to remove any existing fleas or ticks 7 to 14 days prior to treatment. […] Live fleas and ticks were counted on Day −1. […]
Each dog was examined visually for fleas and ticks on Days 1, 7, 14, 21, and 28 following treatment. […] Live tick counts were recorded by species. Live ticks only were counted visually on Days 2, 8, 15, 22, and 29. […] All remaining live fleas and ticks were counted and removed.

[2] = Study Day 1, single topical treatment
[3] = Study Day 2, single topical treatment
[4] = Study Day 3, single topical treatment
[5] = Study Day 7, single topical treatment
[6] = Study Day 8, single topical treatment
[7] = Study Day 9, single topical treatment
[8] = Study Day 14, single topical treatment
[9] = Study Day 15, single topical treatment
[10] = Study Day 16, single topical treatment
[11] = Study Day 21, single topical treatment
[12] = Study Day 22, single topical treatment
[13] = Study Day 23, single topical treatment
[14] = Study Day 28, single topical treatment
[15] = Day 1, single topical treatment
[16] = Day 3, single topical treatment
[17] = Day 7, single topical treatment
[18] = Day 9, single topical treatment
[19] = Day 14, single topical treatment
[20] = Day 16, single topical treatment
[21] = Day 21, single topical treatment
[22] = Day 23, single topical treatment
[23] = Day 28, single topical treatment
[24] = Day 30, single topical treatment

| SMILES | Percent control R. sanguineus (R. SANGUINEUS; [2]) [%] | Percent control R. sanguineus (R. SANGUINEUS; [3]) [%] | Percent control R. sanguineus (R. SANGUINEUS; [4]) | Percent control R. sanguineus (R. SANGUINEUS; [5]) [%] | Percent control R. sanguineus (R. SANGUINEUS; [6]) [%] | Percent control R. sanguineus (R. SANGUINEUS; [7]) [%] | Percent control R. sanguineus (R. SANGUINEUS; [8]) [%] | Percent control R. sanguineus (R. SANGUINEUS; [9]) [%] | Percent control R. sanguineus (R. SANGUINEUS; [10]) [%] | Percent control R. sanguineus (R. SANGUINEUS; [11]) [%] | Percent control R. sanguineus (R. SANGUINEUS; [12]) [%] | Percent control R. sanguineus (R. SANGUINEUS; [13]) [%] | Percent control R. sanguineus (R. SANGUINEUS; [14]) [%] | Percent control fleas (FLEAS (Siphoneptera); [15]) [%] | Percent control fleas (FLEAS (Siphoneptera); [16]) [%] | Percent control fleas (FLEAS (Siphoneptera); [17]) [%] | Percent control fleas (FLEAS (Siphoneptera); [18]) [%] | Percent control fleas (FLEAS (Siphoneptera); [19]) [%] | Percent control fleas (FLEAS (Siphoneptera); [20]) [%] | Percent control fleas (FLEAS (Siphoneptera); [21]) [%] | further results |
| --- | --- | --- | --- | --- | --- | --- | --- | --- | --- | --- | --- | --- | --- | --- | --- | --- | --- | --- | --- | --- | --- |
| CO[C@H]1C[C@H](O[C@@H]2/C(C)=C/C[C@@H]3C[C@@H](C[C@]4(CC[C@H](C)[C@@H](C5CCCCC5)O4)O3)OC(=O)[C@@H]3C=C(C)/C(=N/O)[C@H]4OC/C(=C\C=C\[C@@H]2C)[C@]43O)O[C@@H](C)[C@@H]1O [Selamectin, selamectin] | −13.1 | 48.5 | 87% and 87.4% | 83.9 | 83.6 | 95.6 | 21.5 | 46.0 | 70.9 | −7.0 | −2.2 | 8.2 | −16.0 | 87.3 | 100 | 100 | 100 | 99.7 | 100 | 99.8 | tick killing of R. sanguineus (in words) (R. SANGUINEUS; by day 16 post application): negligent; flea kill compared with imidacloprid or the combination (in words) (FLEAS (Siphoneptera)): not as effective as either imidacloprid or the combination of imidacloprid and permethrin; Percent control fleas (FLEAS (Siphoneptera); [22]): 100%; Percent control fleas (FLEAS (Siphoneptera); [23]): 86%; Percent control fleas (FLEAS (Siphoneptera); [24]): 98%; Percent control fleas (FLEAS (Siphoneptera); Day −1 (pretreatment count)): 15.1%; time required to demonstrate a significant killing of fleas (FLEAS (Siphoneptera); single topical treatment): 3 days; Percent control D. variabilis (D. VARIABILIS; [2]): 26.2%; Percent control D. variabilis (D. VARIABILIS; [3]): 46.7%; Percent control D. variabilis (D. VARIABILIS; [4]): 70.8%; Percent control D. variabilis (D. VARIABILIS; [5]): 23.1%; Percent control D. variabilis (D. VARIABILIS; [6]): 61.2%; Percent control D. variabilis (D. VARIABILIS; [7]): 83% and 83.2%; Percent control D. variabilis (D. VARIABILIS; [8]): 16.6%; Percent control D. variabilis (D. VARIABILIS; [9]): 32.7%; Percent control D. variabilis (D. VARIABILIS; [10]): 46.1%; Percent control D. variabilis (D. VARIABILIS; [11]): 2.7%; Percent control D. variabilis (D. VARIABILIS; [12]): −0.6%; Percent control D. variabilis (D. VARIABILIS; [13]): 24.7%; Percent control D. variabilis (D. VARIABILIS; [14]): 0.1% |
| CC1(C)C(C=C(Cl)Cl)C1C(=O)OCc1cccc(Oc2ccccc2)c1 (stereo not drawn) [Permethrin] | 72.7 | 75.0 | 85.0% | 99.4 | 100 | 99.0 | 95.2 | 98.9 | 99.4 | 89.4 | 91.7 | 91.5 | 68.6 | 89.8 | 93.9 | 79.4 | 87.8 | 71.9 | 65.1 | 52.9 | time required to approach a 100% killing of ticks ([1]; single topical treatment): 7 days; Percent control fleas (FLEAS (Siphoneptera); [22]): 41.9%; Percent control fleas (FLEAS (Siphoneptera); [23]): 43.9%; Percent control fleas (FLEAS (Siphoneptera); [24]): 7.7%; Percent control fleas (FLEAS (Siphoneptera); Day −1 (pretreatment count)): 1.5%; killing of fleas (in words) (FLEAS (Siphoneptera); from day 1 through day 21): some killing effect on fleas; Percent control D. variabilis (D. VARIABILIS; [2]): 36.2%; Percent control D. variabilis (D. VARIABILIS; [3]): 53.9%; Percent control D. variabilis (D. VARIABILIS; [4]): 75.3%; Percent control D. variabilis (D. VARIABILIS; [5]): 95.2%; Percent control D. variabilis (D. VARIABILIS; [6]): 96.1%; Percent control D. variabilis (D. VARIABILIS; [7]): 97.1%; Percent control D. variabilis (D. VARIABILIS; [8]): 91.5%; Percent control D. variabilis (D. VARIABILIS; [9]): 92.9%; Percent control D. variabilis (D. VARIABILIS; [10]): 96.8%; Percent control D. variabilis (D. VARIABILIS; [11]): 90.8%; Percent control D. variabilis (D. VARIABILIS; [12]): 85.1%; Percent control D. variabilis (D. VARIABILIS; [13]): 89.3%; Percent control D. variabilis (D. VARIABILIS; [14]): 79.3% |
| N#Cc1nn(-c2c(Cl)cc(C(F)(F)F)cc2Cl)c(N)c1[S+]([O-])C(F)(F)F (stereo not drawn) [Fipronil, fipronil] | 96.3 | 100 | 100% | 100 | 100 | 100 | 99.4 | 100 | 99.4 | 86.0 | 100 | 100 | 65.3 | 100 | 100 | 100 | 100 | 100 | 100 | 100 | onset of tick kill (in words) ([1]; both tick species): early kill, similar to that of the combination of permethrin and imidacloprid; flea kill compared with imidacloprid or the combination (in words) (FLEAS (Siphoneptera)): rate of flea kill equal to that of imidacloprid or the combination of imidacloprid and permethrin; Percent control fleas (FLEAS (Siphoneptera); [22]): 100%; Percent control fleas (FLEAS (Siphoneptera); [23]): 100%; Percent control fleas (FLEAS (Siphoneptera); [24]): 100%; Percent control fleas (FLEAS (Siphoneptera); Day −1 (pretreatment count)): 22.4%; Percent control D. variabilis (D. VARIABILIS; [2]): *92.9%; Percent control D. variabilis (D. VARIABILIS; [3]): *100%; Percent control D. variabilis (D. VARIABILIS; [4]): 100%; Percent control D. variabilis (D. VARIABILIS; [5]): 100%; Percent control D. variabilis (D. VARIABILIS; [6]): 100%; Percent control D. variabilis (D. VARIABILIS; [7]): 100%; Percent control D. variabilis (D. VARIABILIS; [8]): 98.7%; Percent control D. variabilis (D. VARIABILIS; [9]): 100%; Percent control D. variabilis (D. VARIABILIS; [10]): 100%; Percent control D. variabilis (D. VARIABILIS; [11]): 92.7%; Percent control D. variabilis (D. VARIABILIS; [12]): 98.7%; Percent control D. variabilis (D. VARIABILIS; [13]): 100%; Percent control D. variabilis (D. VARIABILIS; [14]): 69.7% |
| O=[N+]([O-])N=C1NCCN1Cc1ccc(Cl)nc1 [Imidacloprid, 1-[(6-chloro-3-pyridinyl)methyl]-N-nitro-2-imidazolidinimine] | 15.5 | 42.4 | 35.9% | 67.2 | 72.0 | 66.6 | 53.5 | 58.2 | 54.0 | 41.5 | 18.9 | −5.3 | 39.1 | 100 | 100 | 100 | 100 | 100 | 100 | 100 | Percent control fleas (FLEAS (Siphoneptera); [22]): 99.6%; Percent control fleas (FLEAS (Siphoneptera); [23]): 98.6%; Percent control fleas (FLEAS (Siphoneptera); [24]): 99.4%; Percent control fleas (FLEAS (Siphoneptera); Day −1 (pretreatment count)): 5.4%; killing of fleas (in words) (FLEAS (Siphoneptera); from day 1 through day 30): killed essentially all of the fleas; Percent control D. variabilis (D. VARIABILIS; [2]): −12.0%; Percent control D. variabilis (D. VARIABILIS; [3]): 16.9%; Percent control D. variabilis (D. VARIABILIS; [4]): 30.9%; Percent control D. variabilis (D. VARIABILIS; [5]): 32.5%; Percent control D. variabilis (D. VARIABILIS; [6]): 35.3%; Percent control D. variabilis (D. VARIABILIS; [7]): 39.4%; Percent control D. variabilis (D. VARIABILIS; [8]): 50.3%; Percent control D. variabilis (D. VARIABILIS; [9]): 66.4%; Percent control D. variabilis (D. VARIABILIS; [10]): 68.4%; Percent control D. variabilis (D. VARIABILIS; [11]): 50.2%; Percent control D. variabilis (D. VARIABILIS; [12]): 40.1%; Percent control D. variabilis (D. VARIABILIS; [13]): 50.2%; Percent control D. variabilis (D. VARIABILIS; [14]): 38.8% |

Reference: patent publication US20080033017A1, “COMPOSITIONS FOR ENHANCED ACARICIDAL ACTIVITY” (priority 2000, published 2008)
